Common to all, as to format: cell-based
The target of one assay is KV1.5 (Homo sapiens, UniProt P22460). The assay can be described thus: Selectivity, HiClamp Xenopus laevis heterologous expression system, KV1.5. The conditions noted are these: for IC50: HiClamp, oocytes, NA = no significant inhibition, no IC50 determined; for Effect on KV1.5 channel: at a concentration of the compound's IC50 value for KV1.3. As to the method: (§1) Ion channels (Kv1.x, Kv2.1, Kv4.2, Kv10.1) were expressed in Xenopus laevis oocytes by linearization of the plasmids and subsequent in vitro transcription using a commercial T7 or SP6 mMESSAGE mMACHINE transcription kit (Ambion, Carlsbad, California, USA). Defolliculated Xenopus oocytes were then injected with 20–50 nL of the cRNA at a concentration of 1 ng/nL using a micro-injector (Drummond Scientific1, Broomall, PA, USA). The oocytes were incubated in a solution containing (in mM): NaCl, 96; KCl, 2; CaCl2, 1.8; MgCl2, 2 and HEPES, 5 (pH 7.5), supplemented with 50 mg/L gentamycin sulfate and 90 mg/L theophylline. After ex vivo translation, the ion channels were correctly inserted in the cell membrane of the oocytes.
KV1.5, sequence (P22460 whole entry): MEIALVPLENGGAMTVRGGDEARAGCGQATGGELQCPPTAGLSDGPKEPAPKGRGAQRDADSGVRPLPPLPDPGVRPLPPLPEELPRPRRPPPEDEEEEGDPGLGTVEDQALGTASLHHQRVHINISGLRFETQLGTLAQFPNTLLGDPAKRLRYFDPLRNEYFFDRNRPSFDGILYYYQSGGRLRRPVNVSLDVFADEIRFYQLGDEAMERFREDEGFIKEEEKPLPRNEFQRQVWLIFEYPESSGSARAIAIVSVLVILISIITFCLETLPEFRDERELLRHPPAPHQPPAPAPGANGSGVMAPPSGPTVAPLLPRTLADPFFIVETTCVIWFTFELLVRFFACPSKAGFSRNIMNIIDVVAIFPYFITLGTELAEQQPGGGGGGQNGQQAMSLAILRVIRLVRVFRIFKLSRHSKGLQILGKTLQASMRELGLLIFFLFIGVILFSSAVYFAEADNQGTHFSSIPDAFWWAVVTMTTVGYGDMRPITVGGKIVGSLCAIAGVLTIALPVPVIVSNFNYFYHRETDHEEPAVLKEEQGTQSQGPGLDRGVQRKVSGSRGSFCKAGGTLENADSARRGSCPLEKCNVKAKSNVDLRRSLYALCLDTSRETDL
(§2) Two-electrode voltage-clamp recordings were performed at room temperature (18–22 °C) using a Geneclamp 500 amplifier (Molecular Devices, San Jose, CA, USA) and pClamp data acquisition (Axon Instruments, Union City, CA, USA) and using an integrated digital TEVC amplifier controlled by HiClamp, an automated Voltage-Clamp Screening System (Multi Channel Systems MCS GmbH, Reutlingen, Germany). Whole-cell currents from oocytes were recorded 1–4 days after injection. The bath solution composition was ND96 (in mM): NaCl, 96; KCl, 2; CaCl2, 1.8; MgCl2, 2 and HEPES, 5 (pH 7.5). Voltage and current electrodes were filled with a 3 M solution of KCl in H2O. Resistances of both electrodes were kept between 0.5 and 1.5 MΩ. The elicited Kv1.x, Kv2.1, Kv4.2 and Kv10.1 currents were filtered at 0.5 kHz and sampled at 2 kHz using a four-pole low-pass Bessel filter. Leak subtraction was performed using a P/4 protocol.
(§3) For the electrophysiological analysis of the compounds, a number of protocols were applied from a holding potential of −90 mV. Currents for Kv1.x, Kv2.1, Kv4.2 and Kv10.1 were evoked by 1 s depolarizing pulses either to 0 mV or to a range of voltage steps between −80 mV and +40 mV. For the analysis of the data, only the inhibition at the 0 mV step was used. The concentration dependency of all compounds was assessed by measuring the current inhibition in the presence of increasing compound concentrations. […] From this stock solution, adequate dilutions with a maximum of 0.5% DMSO were made for testing.
(§4) All electrophysiological data (Figure S1) are presented as means ± S.E.M of n ≥ three independent experiments unless otherwise indicated. All data were analyzed using pClamp Clampfit 10.4 (Molecular Devices, Downingtown, PA, USA), OriginPro 9 (Originlab, Northampton, MA, USA), GraphPad Prism 8 software (GraphPad Software, Inc., San Diego, CA, USA) and DataMining (Multi Channel Systems MCS GmbH, Reutlingen, Germany). The Dunnett test and one-way ANOVA were performed to calculate the significance of the induced inhibition compared to the control.

The next assay has as its target KV1.2 (Homo sapiens, UniProt P16389). Nature of the assay: Selectivity, HiClamp Xenopus laevis heterologous expression system, KV1.2. The conditions noted are these: for IC50: HiClamp, oocytes, NA = no significant inhibition, no IC50 determined; for Effect on KV1.2 channel: at a concentration of the compound's IC50 value for KV1.3. The procedure: as §1, §2, §3, §4

In assay [1] the target is T1, KV1.3 (Homo sapiens, UniProt P22001). Nature of the assay: KV1.3 inhibition, manual voltage-clamp on Xenopus laevis oocytes. The note with it: for inhibition at 10 µM: manual voltage-clamp on Xenopus laevis oocytes; for IC50: KV1.3, manual voltage-clamp, Xenopus laevis oocytes. The procedure: (§5) Stage V–VI oocytes were isolated by partial ovariectomy from Xenopus laevis frogs (African clawed frogs). […] After anaesthetizing the frogs by a 15-min submersion in 0.1% tricaine methanesulfonate (amino benzoic acid ethyl ester; Merck, Kenilworth, NJ, USA), pH 7.0, the oocytes were collected. The isolated oocytes were then washed with a 1.5 mg/mL collagenase solution for 2 h to remove the follicle layer.
T1 sequence (P22001 whole entry): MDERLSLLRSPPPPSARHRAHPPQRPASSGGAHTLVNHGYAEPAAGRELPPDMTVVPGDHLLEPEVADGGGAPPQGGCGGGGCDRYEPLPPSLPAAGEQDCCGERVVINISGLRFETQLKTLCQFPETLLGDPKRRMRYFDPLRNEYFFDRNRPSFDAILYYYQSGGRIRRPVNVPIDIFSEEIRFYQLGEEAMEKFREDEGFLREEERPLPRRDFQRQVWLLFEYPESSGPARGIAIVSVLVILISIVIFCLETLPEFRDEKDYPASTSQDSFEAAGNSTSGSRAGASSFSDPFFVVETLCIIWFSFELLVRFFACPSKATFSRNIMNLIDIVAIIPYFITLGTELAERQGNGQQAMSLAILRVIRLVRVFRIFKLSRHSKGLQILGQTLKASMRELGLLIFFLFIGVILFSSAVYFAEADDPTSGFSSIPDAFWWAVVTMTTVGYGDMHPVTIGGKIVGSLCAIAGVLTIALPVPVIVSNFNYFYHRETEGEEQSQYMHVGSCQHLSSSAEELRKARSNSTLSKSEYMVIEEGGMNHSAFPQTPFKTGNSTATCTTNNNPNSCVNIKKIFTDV
as §1, with “theophylline.” for “theophylline. After ex vivo translation, the ion channels were correctly inserted in the cell membrane of the oocytes.”
as §2, with “Resistances of both electrodes were kept between 0.5 and 1.5 MΩ.” left out
as §3
(§6) All electrophysiological data (Figure S1) are presented as means ± S.E.M of n ≥ three independent experiments unless otherwise indicated. […] The Dunnett test and one-way ANOVA were performed to calculate the significance of the induced inhibition compared to the control.

The target in assay [2] is T1, KV1.3. Nature of the assay: KV1.3 inhibition, HiClamp on Xenopus laevis oocytes. The note with it: Xenopus laevis oocytes (marked * in Table 2). The procedure: as §5
as §1, with “theophylline.” for “theophylline. After ex vivo translation, the ion channels were correctly inserted in the cell membrane of the oocytes.”
as §2, with “Resistances of both electrodes were kept between 0.5 and 1.5 MΩ.” left out
as §3, §6

Here are results for four compounds from publication PMC9179341, “Design of New Potent and Selective Thiophene-Based KV1.3 Inhibitors and Their Potential for Anticancer Activity” (Cancers, 2022).

KV1.2, sequence (P16389 whole entry): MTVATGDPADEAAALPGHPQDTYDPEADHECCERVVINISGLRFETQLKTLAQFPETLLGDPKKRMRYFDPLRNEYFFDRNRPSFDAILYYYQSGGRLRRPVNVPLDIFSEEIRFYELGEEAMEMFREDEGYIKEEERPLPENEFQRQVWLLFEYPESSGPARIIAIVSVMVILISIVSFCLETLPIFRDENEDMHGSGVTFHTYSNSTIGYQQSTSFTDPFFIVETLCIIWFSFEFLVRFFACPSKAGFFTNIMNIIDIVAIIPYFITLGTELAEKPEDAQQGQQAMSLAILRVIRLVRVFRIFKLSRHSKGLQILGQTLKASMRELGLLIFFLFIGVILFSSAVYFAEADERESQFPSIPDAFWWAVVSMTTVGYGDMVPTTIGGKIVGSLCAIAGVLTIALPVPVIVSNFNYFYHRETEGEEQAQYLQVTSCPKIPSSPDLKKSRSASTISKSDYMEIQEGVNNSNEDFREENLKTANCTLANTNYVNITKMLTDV

A word on the IC50: it is the concentration that gives 50% inhibition. In general, inhibition refers to the percentage by which the read-out fell short of the control. Regarding `COc1ccccc1C(=O)NCC1(c2cccs2)CCOC1` (centres unmarked) [Compound 14], at KV1.5, the concentration for half-maximal inhibition (IC50) came out at 2.07 ± 0.13 µM and the “Effect on KV1.5 channel” value was “significant effects”. On KV1.2, the IC50 came to 4 ± 0.2 µM and the “Effect on KV1.2 channel” value is reported as “significant effects”. Moreover, on KV1.3 [1], the inhibition at 10 µM was found to be 92 ± 4% and it took 0.57 µM to reach half-maximal inhibition (IC50). The compound also had an IC50 against KV1.3 [2] of 1.03 ± 0.03 µM.

As to `COc1ccc(F)cc1C(=O)NCC1(c2ccccc2)CCOCC1` [Compound 37], at KV1.5, the IC50 was 8.64 ± 0.03 µM and the “Effect on KV1.5 channel” value is “significantly inhibited”. In addition, at KV1.2, the midpoint of inhibition, the IC50, lay at 2.34 ± 0.26 µM and the “Effect on KV1.2 channel” value is reported as “significantly inhibited”. Also, at KV1.3 [1], the inhibition at 10 µM came to 94 ± 1% and inhibition was half-maximal at 3.96 ± 0.47 µM (IC50). At KV1.3 [2], this compound had a concentration for half-maximal inhibition (IC50) of 1.97 µM.

Consider `COc1ccccc1C(=O)NCC1(c2cccs2)CCOCC1` [Compound 43], for which, at KV1.5, the IC50 turned out to be 4.33 ± 0.01 µM and the “Effect on KV1.5 channel” value is “significant effects”. At KV1.2, inhibition was half-maximal at 2.76 ± 0.56 µM (IC50) and the “Effect on KV1.2 channel” value is listed as “significant effects”. On KV1.3 [1], the inhibition at 10 µM came out at 92 ± 1% and the 50% inhibitory concentration (IC50) was 0.59 µM. Besides, the IC50 at KV1.3 [2] is 1.2 ± 0.02 µM.

Regarding `COc1ccccc1C(=O)NCC1(c2ccsc2)CCOCC1` [Compound 44], the “Effect on KV1.5 channel” value at KV1.5 is reported as “no significant effects”. On KV1.2, the “Effect on KV1.2 channel” value is listed as “no significant effects”. On KV1.3 [1], this compound gave an inhibition at 10 µM of 96 ± 1% and a 50% inhibitory concentration (IC50) of 0.47 µM. The concentration for half-maximal inhibition (IC50) against KV1.3 [2] was 1.99 ± 0.61 µM.
